Assay results from ChEMBL document CHEMBL5050844 (2019).

How the values were obtained:
[1] = Induction of anti-CD3/CD28 antibodies-stimulated human T cell activation at 4 uM assessed fold increase in IL-2 secretion measured by ELISA assay; type: functional, T cell line
[2] = Induction of anti-CD3/CD28 antibodies-stimulated human T cell activation at 0.3 uM assessed fold increase in IL-2 secretion measured by ELISA assay; type: functional, T cell line
[3] = Induction of anti-CD3 antibodies-stimulated human T cell activation at 8 uM assessed fold increase in IL-2 secretion measured by ELISA assay; type: functional, T cell line; also: reference of the scale not given here
[4] = Induction of anti-CD3/CD28 antibodies-stimulated human T cell activation at 1 uM assessed fold increase in CD25 expression measured by ELISA assay; type: functional, T cell line
[5] = Induction of anti-CD3/CD28 antibodies-stimulated human T cell activation at 0.3 uM assessed fold increase in CD25 expression measured by ELISA assay; type: functional, T cell line
[6] = Induction of anti-CD3 antibodies-stimulated human T cell activation at 8 uM assessed fold increase in CD25 expression measured by ELISA assay; type: functional, T cell line; also: reference of the scale not given here
[7] = Induction of anti-CD3 antibodies-stimulated human T cell activation at 1 uM assessed fold increase in CD25 expression measured by ELISA assay; type: functional, T cell line; also: reference of the scale not given here
[8] = Induction of anti-CD3/CD28 antibodies-stimulated human CD4+ T cell activation at 10 uM assessed fold increase in CD69 expression measured by flow cytometry analysis; type: functional, T cell line
[9] = Induction of anti-CD3/CD28 antibodies-stimulated human CD4+ T cell activation at 1.11 uM assessed fold increase in CD69 expression measured by flow cytometry analysis; type: functional, T cell line
[10] = Induction of anti-CD3/CD28 antibodies-stimulated human CD4+ T cell activation at 10 uM assessed fold increase in cell proliferation measured by flow cytometry analysis; type: functional, T cell line
[11] = Induction of anti-CD3/CD28 antibodies-stimulated human CD4+ T cell activation at 1.11 uM assessed fold increase in cell proliferation measured by flow cytometry analysis; type: functional, T cell line
[12] = Induction of anti-CD3/CD28 antibodies-stimulated human CD8+ T cell activation at 1.11 uM assessed fold increase in CD69 expression measured by flow cytometry analysis; type: functional, T cell line
[13] = Induction of anti-CD3 antibodies-stimulated human CD4+ T cell activation at 10 uM assessed fold increase in CD69 expression measured by flow cytometry analysis; type: functional, T cell line; also: reference of the scale not given here
[14] = Induction of anti-CD3 antibodies-stimulated human CD4+ T cell activation at 1.11 uM assessed fold increase in CD69 expression measured by flow cytometry analysis; type: functional, T cell line; also: reference of the scale not given here
[15] = Induction of anti-CD3 antibodies-stimulated human CD8+ T cell activation at 10 uM assessed fold increase in CD69 expression measured by flow cytometry analysis; type: functional, T cell line; also: reference of the scale not given here
[16] = Induction of anti-CD3 antibodies-stimulated human CD8+ T cell activation at 1.11 uM assessed fold increase in CD69 expression measured by flow cytometry analysis; type: functional, T cell line; also: reference of the scale not given here
[17] = Induction of anti-CD3 antibodies-stimulated human CD8+ T cell activation at 10 uM assessed fold increase in cell proliferation measured by flow cytometry analysis; type: functional, T cell line; also: reference of the scale not given here
[18] = Induction of anti-CD3 antibodies-stimulated human CD8+ T cell activation at 1.11 uM assessed fold increase in cell proliferation measured by flow cytometry analysis; type: functional, T cell line; also: reference of the scale not given here
[19] = Induction of anti-CD3/CD28 antibodies-stimulated human T cell activation at 10 uM assessed fold increase in GM-CSF secretion measured by ELISA assay; type: functional, T cell line
[20] = Induction of anti-CD3 antibodies-stimulated human T cell activation at 10 uM assessed fold increase in GM-CSF secretion measured by ELISA assay; type: functional, T cell line; also: reference of the scale not given here
[21] = Induction of anti-CD3/CD28 antibodies-stimulated human T cell activation at 10 uM assessed fold increase in TNF-alpha secretion measured by ELISA assay; type: functional, T cell line
[22] = Induction of anti-CD3/CD28 antibodies-stimulated human T cell activation at 1.11 uM assessed fold increase in TNF-alpha secretion measured by ELISA assay; type: functional, T cell line
[23] = Induction of anti-CD3 antibodies-stimulated human T cell activation at 1.11 uM assessed fold increase in TNF-alpha secretion measured by ELISA assay; type: functional, T cell line; also: reference of the scale not given here
[24] = Induction of anti-CD3/CD28 antibodies-stimulated human T cell activation at 10 uM assessed fold increase in IFN-gamma secretion measured by ELISA assay; type: functional, T cell line
[25] = Induction of anti-CD3/CD28 antibodies-stimulated human T cell activation at 1.11 uM assessed fold increase in IFN-gamma secretion measured by ELISA assay; type: functional, T cell line
[26] = Induction of anti-CD3 antibodies-stimulated human T cell activation at 10 uM assessed fold increase in IFN-gamma secretion measured by ELISA assay; type: functional, T cell line; also: reference of the scale not given here
[27] = Induction of anti-CD3 antibodies-stimulated human T cell activation at 1.11 uM assessed fold increase in IFN-gamma secretion measured by ELISA assay; type: functional, T cell line; also: reference of the scale not given here
[28] = Induction of allogenic human T cell activation at 10 uM assessed fold increase in cell proliferation; type: functional, T cell line
[29] = Induction of anti-CD3 antibodies-stimulated human exhausted T cell activation assessed fold increase in IL-2 secretion measured by ELISA assay; type: functional, T cell line; also: reference of the scale not given here
[30] = Induction of anti-CD3 antibodies-stimulated human exhausted T cell activation assessed fold increase in GM-CSF secretion measured by ELISA assay; type: functional, T cell line; also: reference of the scale not given here
[31] = Induction of anti-CD3 antibodies-stimulated human exhausted CD8+ T cell activation assessed fold increase in CTLA4 expression measured by flow cytometry analysis; type: functional, T cell line; also: reference of the scale not given here
[32] = Induction of anti-CD3/CD28 antibodies-stimulated human anergic T cell activation at 10 uM assessed fold increase in IFN-gamma secretion measured by ELISA assay; type: functional, T cell line
[33] = Induction of anti-CD3/CD28 antibodies-stimulated human anergic T cell activation at 0.37 uM assessed fold increase in IFN-gamma secretion measured by ELISA assay; type: functional, T cell line
[34] = test system: B cell; test: Induction of anti-IgM-stimulated human CD20+ B cell activation at 10 to 1000 uM assessed as increase in CD69 expression measured as mean fluorescence intensity AUC by flow cytometry analysis; type: functional, cell-based; conditions: dose 10-1000 µM
[35] = Induction of activation of human CD56+ CD3- NK cells co-cultured with human K562 cells in 1:1 ratio and assessed as increase in IFN-gamma secretion at 10 uM measured by ELISA assay; type: functional, Natural killer cell
[36] = Induction of activation of human CD56+ CD3- NK cells co-cultured with human K562 cells in 1:1 ratio and assessed as increase in TNF-alpha secretion at 10 uM measured by ELISA assay; type: functional, Natural killer cell
[37] = Induction of activation of human CD56+ CD3- NK cells co-cultured with human K562 cells in 1:1 ratio and assessed as increase in IFN-gamma secretion at 2.5 uM measured by ELISA assay; type: functional, Natural killer cell
[38] = Induction of activation of human CD56+ CD3- NK cells co-cultured with human K562 cells in 1:1 ratio and assessed as increase in TNF-alpha secretion at 2.5 uM measured by ELISA assay; type: functional, Natural killer cell

Row | SMILES | fold change (FC) [1] | fold change (FC) [2] | fold change (FC) [3] | fold change (FC) [4] | fold change (FC) [5] | fold change (FC) [6] | fold change (FC) [7] | fold change (FC) [8] | fold change (FC) [9] | fold change (FC) [10] | fold change (FC) [11] | fold change (FC) [12] | fold change (FC) [13] | fold change (FC) [14] | fold change (FC) [15] | fold change (FC) [16] | fold change (FC) [17] | fold change (FC) [18] | fold change (FC) [19] | fold change (FC) [20] | also measured
1 | Cn1cnnc1C(F)(F)C(C)(F)c1cccc(N2Cc3c(cc(CN4CC[C@@H](F)C4)cc3C(F)(F)F)C2=O)c1 (single isomer, unassigned) | >=7.5 | 2.51 | >=0.201 | 1.51 | 1.31 | >=1.001 | >=1.001 | 1.401 | 1.201 | >4 | >4 | 1.201 | >1.601 | 1.401 | 1.401 | 1.201 | >4 | >4 | >4 | 2.01 | fold change (FC) [21]: 2.01; fold change (FC) [22]: 2.01; fold change (FC) [23]: 1.51; fold change (FC) [24]: >4; fold change (FC) [25]: 2.01; fold change (FC) [26]: <=2; fold change (FC) [27]: <=2; fold change (FC) [28]: 2.01; fold change (FC) [29]: >3.01; fold change (FC) [30]: 1.41; fold change (FC) [31]: >1.61; fold change (FC) [32]: >4.01; fold change (FC) [33]: 2.51; AUC [34]: 1.01; fold change (FC) [35]: >=5; fold change (FC) [36]: >=5; fold change (FC) [37]: 2.01; fold change (FC) [38]: 2.01
2 | Cn1cnnc1CC1(c2cccc(N3Cc4c(cc(CN5CC(F)C5)cc4C(F)(F)F)C3=O)c2)COC1 | >=7.5 | 5 | >=0.201 | 1.31 | 1.31 | >=1.001 | >=1.001 | 1.401 | 1.201 | >4 | >4 | 1.201 | >1.601 | >1.601 | 1.401 | 1.201 | >4 | >4 | >4 | >4 | fold change (FC) [21]: 2.01; fold change (FC) [22]: 2.01; fold change (FC) [23]: 1.51; fold change (FC) [24]: >4; fold change (FC) [25]: 3.01; fold change (FC) [26]: >4; fold change (FC) [27]: 2.01; fold change (FC) [28]: >3; fold change (FC) [29]: <=2.5; fold change (FC) [30]: >1.61; fold change (FC) [31]: >1.61; fold change (FC) [32]: >4.01; fold change (FC) [33]: 2.51; AUC [34]: 1.01; fold change (FC) [35]: >=5; fold change (FC) [36]: 2.01; fold change (FC) [37]: 2.01; fold change (FC) [38]: 2.01
3 | C[C@H](Cc1nncn1C)c1cccc(N2Cc3c(cc(CN4CC(C)(O)C4)cc3C(F)(F)F)C2=O)c1 | >=7.5 | 2.51 | >=0.201 | 1.31 | 1.01 | >=1.001 | >=1.001 | 1.401 | 1.401 | >4 | >4 | 1.201 | >1.601 | >1.601 | 1.401 | 1.201 | >4 | >4 | >4 | 2.01 | fold change (FC) [21]: 2.01; fold change (FC) [22]: 2.01; fold change (FC) [23]: 1.51; fold change (FC) [24]: >4; fold change (FC) [25]: 2.01; fold change (FC) [26]: <=2; fold change (FC) [27]: <=2; fold change (FC) [28]: 2.01; fold change (FC) [29]: 2.51; fold change (FC) [30]: 1.41; fold change (FC) [31]: >1.61; fold change (FC) [32]: >4.01; fold change (FC) [33]: <=2.5; AUC [34]: 0.5; fold change (FC) [35]: >=5; fold change (FC) [36]: 2.01; fold change (FC) [37]: 2.01; fold change (FC) [38]: 2.01
4 | C[C@H](Cc1nncn1C)c1cccc(NC(=O)c2nc(C(F)(F)F)c[nH]2)c1 | 2.51 | 1.01 | >=0.201 | 1.01 | 1.01 | >=1.001 | 0.801 | 1.401 | 1.201 | >4 | 2.01 | <=1.2 | 1.401 | 1.201 | 1.201 | <=1.2 | >4 | 2.01 | 2.01 | 2.01 | fold change (FC) [21]: 2.01; fold change (FC) [22]: <=1.5; fold change (FC) [23]: <=1.5; fold change (FC) [24]: 2.01; fold change (FC) [25]: <=2; fold change (FC) [26]: 2.01; fold change (FC) [27]: <=2; fold change (FC) [28]: <=2; fold change (FC) [29]: >3.01; fold change (FC) [30]: <=1.4; fold change (FC) [31]: <=1.4; fold change (FC) [32]: 2.51; fold change (FC) [33]: <=2.5; AUC [34]: < 0.5; fold change (FC) [35]: 2.01; fold change (FC) [36]: 2.01; fold change (FC) [37]: 1.01; fold change (FC) [38]: 2.01
